Results from paper PMC9116245, “New 1,2,3-triazole linked ciprofloxacin-chalcones induce DNA damage by inhibiting human topoisomerase I& II and tubulin polymerization” (Journal of Enzyme Inhibition and Medicinal Chemistry, 2022).

How the values were obtained:
γH2AX = γH2AX western blotting in HCT116 cells; assay type: cell-based, human; conditions: HCT116, IC50 of compound, versus control cells
Source text: DNA damage is a major reason for inhibiting proliferation and inducing cytotoxicity in cancer cells as well as the main downstream cascade for the Topo-I, Top-II, and tubulin polymerisation inhibition. The phosphorylation of the histone H2AX always occurs after DNA damage forming double-stranded breaks (DSBs). Therefore, we tested the capability of the potent prepared compounds to trigger DNA double strand breaks through detection of the phosphorylation of γH2AX using two different techniques, Immunofluorescence, and western blotting.
Western blotting analysis for HCT116 cells was performed according to the reported procedure in the literature[77–79] to determine the effects of CP hybrids; 4a, 4b, 4e, 4i, and 4j on the expression of polymerised tubulin, γH2AX, p-ATR, p-CHK1, and p-Cdc25C by using the appropriate antibody. See Supplementary Appendix A.

786-0 = assay: NCI one-dose screen; assay type: cell-based; conditions: Homo sapiens; 786-0, 10 µM; read-out: Growth Percent
Outline: (§1)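 Single-dose NCI-60 protocol: compounds tested at 10 µM across the cancer cell-line panel. Value reported as growth percent relative to untreated control.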

MCF7 = assay: NCI one-dose screen; assay type: cell-based; conditions: Homo sapiens; MCF7, 10 µM; read-out: Growth Percent
Outline: as §1

MOLT-4 = assay: NCI one-dose screen; assay type: cell-based; conditions: Homo sapiens; MOLT-4, 10 µM; read-out: Growth Percent
Outline: as §1

NCI-H226 = assay: NCI one-dose screen; assay type: cell-based; conditions: Homo sapiens; NCI-H226, 10 µM; read-out: Growth Percent
Outline: as §1

T-47D = assay: NCI one-dose screen; assay type: cell-based; conditions: Homo sapiens, T47D, read-out: Growth Percent
Outline: as §1

NCI/ADR-RES = assay: NCI one-dose screen; assay type: cell-based; conditions: Homo sapiens, read-out: Growth Percent
Outline: as §1

SK-MEL-5 = assay: NCI one-dose screen; assay type: cell-based; conditions: Homo sapiens; SK-MEL-5, 10 µM; read-out: Growth Percent
Outline: as §1

A498 = assay: NCI one-dose screen; assay type: cell-based; conditions: Homo sapiens; A498, 10 µM; read-out: Growth Percent
Outline: as §1

SW-620 = assay: NCI one-dose screen; assay type: cell-based; conditions: Homo sapiens; SW-620, 10 µM; read-out: Growth Percent
Outline: as §1

HL-60(TB) = assay: NCI one-dose screen; assay type: cell-based; conditions: Homo sapiens, read-out: Growth Percent
LOX IMVI = assay: NCI one-dose screen; assay type: cell-based; conditions: Homo sapiens, read-out: Growth Percent
Outline: as §1

MALME-3M = assay: NCI one-dose screen; assay type: cell-based; conditions: Homo sapiens, read-out: Growth Percent
Outline: as §1

SF-268 = assay: NCI one-dose screen; assay type: cell-based; conditions: Homo sapiens; SF-268, 10 µM; read-out: Growth Percent
Outline: as §1

CCRF-CEM = assay: NCI one-dose screen; assay type: cell-based; conditions: Homo sapiens, read-out: Growth Percent
Outline: as §1

SK-MEL-2 = assay: NCI one-dose screen; assay type: cell-based; conditions: Homo sapiens; SK-MEL-2, 10 µM; read-out: Growth Percent
Outline: as §1

KM12 = assay: NCI one-dose screen; assay type: cell-based; conditions: Homo sapiens; KM12, 10 µM; read-out: Growth Percent
Outline: as §1

BT-549 = assay: NCI one-dose screen; assay type: cell-based; conditions: Homo sapiens; BT-549, 10 µM; read-out: Growth Percent
Outline: as §1

COLO 205 = assay: NCI one-dose screen; assay type: cell-based; conditions: Homo sapiens; COLO 205, 10 µM; read-out: Growth Percent
Outline: as §1

SF-295 = assay: NCI one-dose screen; assay type: cell-based; conditions: Homo sapiens; SF-295, 10 µM; read-out: Growth Percent
Outline: as §1

SR = assay: NCI one-dose screen; assay type: cell-based; conditions: Homo sapiens, read-out: Growth Percent
Outline: as §1

MDA-MB-468 = assay: NCI one-dose screen; assay type: cell-based; conditions: Homo sapiens; MDA-MB-468, 10 µM; read-out: Growth Percent
Outline: as §1

MDA-MB-231/ATCC = assay: NCI one-dose screen; assay type: cell-based; conditions: Homo sapiens, read-out: Growth Percent
Outline: as §1

MDA-MB-435 = assay: NCI one-dose screen; assay type: cell-based; conditions: Homo sapiens; MDA-MB-435, 10 µM; read-out: Growth Percent
Outline: as §1

ACHN = assay: NCI one-dose screen; assay type: cell-based; conditions: Homo sapiens, read-out: Growth Percent
Outline: as §1

UO-31 = assay: NCI one-dose screen; assay type: cell-based; conditions: Homo sapiens; UO-31, 10 µM; read-out: Growth Percent
Outline: as §1

U251 = assay: NCI one-dose screen; assay type: cell-based; conditions: Homo sapiens, U-251; U251, 10 µM; read-out: Growth Percent
Outline: as §1

RPMI-8226 = assay: NCI one-dose screen; assay type: cell-based, human; conditions: RPMI-8226, 10 µM; for activity at 10 µM: Homo sapiens, read-out: Growth Percent
Description: (§2) For screening of anticancer properties, all the developed compounds were chosen by the (NCI) for in-vitro antitumor evaluation. The assay was carried out using 59 human cancer cell lines obtained from nine tumour subpanels (breast, ovarian, melanoma, leukaemia, renal, CNS, lung, prostate, and colon cancer cell lines). Compounds were assessed at a 10 µM concentration. […] Also, hybrids 4a, 4b, 4e, 4i and 4j produced significant anti-proliferative effect in several cancer cells, particularly in leukaemia (RPMI-8226) and colon (HCT116) cells with growth percent of 47.87, −14.59, −24.56, −24.42, −15.84, −9.74, −53.36, −10.26, −31.29, and −39.51%, respectively.
(§3) The method description for NCI anticancer screening is provided in detail in the standard NCI-60 testing protocol.

HCT-116 = assay: NCI one-dose screen; assay type: cell-based, human; conditions: HCT-116, 10 µM; for activity at 10 µM: Homo sapiens, read-out: Growth Percent
Description: as §2, §3

Row | SMILES | γH2AX protein expression, western blotting (γH2AX) | activity at 10 µM (786-0) | activity at 10 µM (MCF7) | activity at 10 µM (MOLT-4) | activity at 10 µM (NCI-H226) | activity at 10 µM (T-47D) | activity at 10 µM (NCI/ADR-RES) | activity at 10 µM (SK-MEL-5) | activity at 10 µM (A498) | activity at 10 µM (SW-620) | activity at 10 µM (HL-60(TB)) | activity at 10 µM (LOX IMVI) | activity at 10 µM (MALME-3M) | activity at 10 µM (SF-268) | activity at 10 µM (CCRF-CEM) | activity at 10 µM (SK-MEL-2) | activity at 10 µM (KM12) | activity at 10 µM (BT-549) | activity at 10 µM (COLO 205) | activity at 10 µM (SF-295) | other results
1 | O=C(/C=C/c1ccccc1)c1ccc(-n2cc(CN3CCN(c4cc5c(cc4F)c(=O)c(C(=O)O)cn5C4CC4)CC3)nn2)cc1 [Compound 4a, (E) 7-(4-((1–(4-Cinnamoylphenyl)-1H-1,2,3-triazol-4-yl)methyl)piperazin-1-yl)-1-cyclopropyl-6-fluoro-4-oxo-1,4-dihydroquinoline-3-carboxylic acid] | increases in the γH2AX protein expression | 87.9% | 72.9% | 102% | 69.6% | 96.4% | 87.9% | 84.3% | 76.7% | 90% | 99% | 55.4% | 94.9% | 85.3% | 111% | 96.4% | 84.9% | 102% | 110% | 95.9% | activity at 10 µM (SR): 99.6%; activity at 10 µM (MDA-MB-468): 72.5%; activity at 10 µM (MDA-MB-231/ATCC): 97.1%; activity at 10 µM (MDA-MB-435): 96.3%; activity at 10 µM (ACHN): 96.7%; activity at 10 µM (UO-31): 63.1%; activity at 10 µM (U251): 98.4%; activity at 10 µM (RPMI-8226): 47.9%; Growth Percent (HCT-116): -9.74%; activity at 10 µM (HCT-116): -9.74%
2 | O=C(/C=C/c1cccc(Cl)c1)c1ccc(-n2cc(CN3CCN(c4cc5c(cc4F)c(=O)c(C(=O)O)cn5C4CC4)CC3)nn2)cc1 [Compound 4b, (E)-7-(4-((1–(4-(3-(3-chlorophenyl)acryloyl)phenyl)-1H-1,2,3-triazol-4-yl)methyl)piperazin-1-yl)-1-cyclopropyl-6-fluoro-4-oxo-1,4-dihydroquinoline-3-carboxylic acid] | increases in the γH2AX protein expression | 53.9% | 37.6% | 68.2% | 82.1% | 75.3% | 94.2% | 78.7% | 70.8% | 85.4% | 90.3% | 36.9% | 94.5% | 56.4% | 29.9% | 93% | 29.9% | 90.4% | 106% | 80.2% | activity at 10 µM (SR): 14.1%; activity at 10 µM (MDA-MB-468): 64.8%; activity at 10 µM (MDA-MB-231/ATCC): 73.6%; activity at 10 µM (MDA-MB-435): 74%; activity at 10 µM (ACHN): 77.7%; activity at 10 µM (UO-31): 52.6%; activity at 10 µM (U251): 34.3%; activity at 10 µM (RPMI-8226): -14.6%; Growth Percent (RPMI-8226): -14.59%; Growth Percent (HCT-116): -53.36%; activity at 10 µM (HCT-116): -53.4%
3 | O=C(/C=C/c1ccc(F)cc1)c1ccc(-n2cc(CN3CCN(c4cc5c(cc4F)c(=O)c(C(=O)O)cn5C4CC4)CC3)nn2)cc1 [Compound 4e, (E)-1-cyclopropyl-6-fluoro-7–(4-((1–(4-(3-(4-fluorophenyl)acryloyl)phenyl)-1H-1,2,3-triazol-4-yl)methyl)piperazin-1-yl)-4-oxo-1,4-dihydroquinoline-3-carboxylic acid] | increases in the γH2AX protein expression | 33.2% | 24.2% | 31.8% | 81.7% | 76.8% | 92.1% | 79% | 61.1% | 43.2% | 84.6% | 20.3% | 89.2% | 35.7% | 20% | 89% | 32.9% | 32% | 105% | 81.2% | activity at 10 µM (SR): 7.11%; activity at 10 µM (MDA-MB-468): 32.9%; activity at 10 µM (MDA-MB-231/ATCC): 65.3%; activity at 10 µM (MDA-MB-435): 64.7%; activity at 10 µM (ACHN): 88.5%; activity at 10 µM (UO-31): 62.8%; activity at 10 µM (U251): 16.6%; activity at 10 µM (RPMI-8226): -24.6%; Growth Percent (RPMI-8226): -24.56%; Growth Percent (HCT-116): -10.26%; activity at 10 µM (HCT-116): -10.3%
4 | COc1cc(/C=C/C(=O)c2ccc(-n3cc(CN4CCN(c5cc6c(cc5F)c(=O)c(C(=O)O)cn6C5CC5)CC4)nn3)cc2)cc(OC)c1OC [Compound 4j, (E)-1-cyclopropyl-6-fluoro-4-oxo-7–(4-((1–(4-(3-(3,4,5-trimethoxyphenyl)acryloyl)phenyl)-1H-1,2,3-triazol-4-yl)methyl)piperazin-1-yl)-1,4-dihydroquinoline-3-carboxylic acid] | increases in the γH2AX protein expression | 43.6% | 16.1% | 10.5% | 32.4% | 28.1% | 82% | 50.9% | 54.4% | 9.41% | 45% | -1.51% | 57.5% | 59.5% | 3.05% | 97.4% | 8.81% | 51% | 60.9% | 67.5% | activity at 10 µM (SR): -12.4%; activity at 10 µM (MDA-MB-468): -7.19%; activity at 10 µM (MDA-MB-231/ATCC): 55.4%; activity at 10 µM (MDA-MB-435): 5.4%; activity at 10 µM (UO-31): 43.5%; activity at 10 µM (U251): 10.6%; activity at 10 µM (RPMI-8226): -15.8%; Growth Percent (RPMI-8226): -15.84%; Growth Percent (HCT-116): -39.51%; activity at 10 µM (HCT-116): -39.5%
